Assay results taken from paper PMC7830597, “Derivatives of Tenuazonic Acid as Potential New Multi-Target Anti-Alzheimer’s Disease Agents” (Biomolecules, 2021).

Columns and labels:
[1] = target: AChE of electroforus electricus (electric eel) (Electrophorus electricus, UniProt O42275); assay: biochemical; conditions: AChE from electric eel; mean of three independent experiments ± SEM; read-out: eeAChEi IC50
Description: All new racemic compounds were tested as acetylcholinesterase inhibitors via an in vitro assay, following a modification of Ellman’s method in three independent experiments, using tacrine as a reference compound. […] Enzyme inhibition assays were performed using an adaptation of Ellman’s method. The readings were made in a spectrophotometer Perkin-Elmer Lambda 35 UV-Vis. Enzyme activity is measured by following the increase in yellow color produced from thiocholine when it reacts with dithiobisnitrobenzoate ion (DTNB). DTNB solution was obtained dissolving the reagent in HEPES buffer with salts, namely NaCl (50 mM) and MgCl2 (20 mM), obtaining a 3 mM solution. The enzyme AChE of electroforus electricus (electric eel) stock (500 U) was dissolved in TRIS 50 mM, pH 8.0, being posteriorly diluted to assay concentrations (5 U), obtaining an aliquot of 1 mL. The enzyme substrate used was acetylthiocholine iodide (AThCh, 16 mM), which was prepared with deionized water. The compounds tested were diluted in MeOH or DMSO (1 mg/mL, 2–7 × 10^−3 M), with further dilution, and five different concentrations were used for each compound, obtaining different percentages of AChE inhibition. The assay consists in the addition of HEPES (50 mM, pH = 8), inhibitor, AChE and MeOH in a 1 mL cuvette. The mixture was left to incubate for 15 min and, after that, AThCh and DTNB were added. The enzymatic reaction was followed through the measurements of absorbencies at 405 nm (Perkin Elmer Lambda 35 spectrophotometer equipped with a temperature programmer PTP 1þ1 Peltier System, using thermostated (T = 25.0 ± 0.1 °C) 1 cm path length cells) during 5 min. A blank solution containing all the components except the enzyme, that was substituted for equal volume of HEPES, was used. A control reaction was used using MeOH instead of the new compounds and was considered the reaction corresponding to 100% enzymatic activity. Each assay was performed in quintupled.

[2] = test system: SH-SY5Y human neuroblastoma cells; assay: Neuroprotection against Aβ1-42-induced toxicity, MTT; format: cell-based; conditions: Aβ1-42 2.5 μM 24 h; 1 h pre-incubation; compounds 1, 2 100 µM; 4 10 µM; 5 20 µM
Description: SH-SY5Y human neuroblastoma cells (ATCC-CRL-2266) were seeded in DMEM/F12 (Dulbecco’s Modified Eagle Medium/Ham’s F-12 Nutrient Mixture; Thermo Fisher Scientific) with 10% heat inactivated fetal bovine serum, 50 U/mL penicillin and 50 U/mL streptomycin under a humidified atmosphere with 95% relative humidity at 37 °C at a 0.16 × 10^6 cells/mL density. Stock solutions from tested compounds (1, 2, 4 and 5) were prepared in DMSO at a 25 mM concentration and stored at −20 °C until needed. In order to select the highest non-toxic concentration, a dose-response screening was performed, where SH-SY5Y cells were exposed to the compounds for 25 h. The selected concentrations for each compound were: 75 µM final concentration for 1 and 2; 10 µM final concentration for 4 and 20 µM final concentration for 5. […] For the neuroprotection assays, the selected compounds were added to the cell media 1 hour prior to the incubation with Aβ1-42 or L-ascorbic acid/ferrous sulphate. Aβ1-42 or L-ascorbic acid/ferrous sulphate treatment was maintained for another 24 h. Aβ1-42 was prepared as 276.9 µM stock in sterile water and administrated in the medium at a 2.5 µM final concentration. Ferrous sulphate was freshly prepared as 0.36 M stock in water and added to the medium at 2.5 mM final concentration. L-ascorbic acid was freshly prepared as 80 mM stock in water and added to the medium at 5 mM final concentration. Aβ1-42 was purchased from Bachem (Torrance, CA, USA) and ferrous sulphate and L-ascorbic acid from Sigma Chemical Co (St. Louis, MO, USA).
Cell viability was measured by using the MTT (3-(4,5-dimethylthiazol-2-yl)-2,5-diphenyl tetrazolium bromide) reduction assay. This test is based on the presence of succinate dehydrogenase enzyme in viable cells, that allows them to metabolize MTT into a formazan. After treatment, the medium was removed, and cells were washed with 1x PBS one time to remove dead cells. 200 µL of MTT solution (0.5 mg/mL) was added to each well and incubated for 2 h protected from light. Formazan precipitates were then dissolved in DMSO and absorbance measured at 570 nm. The ability to reduce MTT was expressed as a percentage of untreated control cells.
Overnight cultures were treated with Aβ1-42 peptide (2.5 μM) for 24 h in the absence or in the presence of the compounds. When compounds were present, a pre-incubation of 1 h preceded the Aβ1-42 treatment. Cellular viability was determined by employing the MTT reduction assay. […] (compounds: 1, 2–100 µM; 4–10 µM; 5–20 µM).

Chain of AChE of electroforus electricus (electric eel) (O42275 24-633): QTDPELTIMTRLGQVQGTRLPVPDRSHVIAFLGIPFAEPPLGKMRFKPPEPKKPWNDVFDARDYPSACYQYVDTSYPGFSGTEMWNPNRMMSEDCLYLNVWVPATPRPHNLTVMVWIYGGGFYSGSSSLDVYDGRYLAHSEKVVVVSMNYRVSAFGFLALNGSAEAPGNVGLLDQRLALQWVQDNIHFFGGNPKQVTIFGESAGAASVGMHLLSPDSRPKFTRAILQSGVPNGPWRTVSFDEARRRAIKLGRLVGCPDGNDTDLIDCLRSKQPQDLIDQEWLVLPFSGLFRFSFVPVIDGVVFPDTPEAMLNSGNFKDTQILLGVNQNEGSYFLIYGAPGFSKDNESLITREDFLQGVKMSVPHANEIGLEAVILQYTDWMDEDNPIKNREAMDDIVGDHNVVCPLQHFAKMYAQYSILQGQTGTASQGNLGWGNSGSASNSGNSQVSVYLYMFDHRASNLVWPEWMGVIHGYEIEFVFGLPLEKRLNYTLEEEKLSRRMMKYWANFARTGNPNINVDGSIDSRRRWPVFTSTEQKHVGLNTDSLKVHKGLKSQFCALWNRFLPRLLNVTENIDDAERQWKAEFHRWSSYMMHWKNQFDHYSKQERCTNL

**Q.** What does the source list for `CCOC(=O)C1=C(O)C(Cc2ccccc2)NC1=O` (stereo not shown) [Compound 2, Ethyl 5-benzyl-4-hydroxy-2-oxo-2,5-dihydro-1H-pyrrole-3-carboxylate]?
**A.** IC50 [1]: 57 ± 4 µM; protection against Aβ1-42-induced toxicity [2]: do not confer protection

**Q.** For `CCOC(=O)C1=C(O)C(C(C)C)NC1=O` (stereo not shown) [Compound 1, Ethyl 4-hydroxy-5-isopropyl-2-oxo-2,5-dihydro-1H-pyrrole-3-carboxylate], which IC50 [1] is on record?
**A.** Its IC50 is 42 ± 3 µM.

**Q.** What about the “protection against Aβ1-42-induced toxicity” value [2] of the same molecule?
**A.** Its value is “do not confer protection”.
